Assay results from patent US20220218679A1, “NOVEL COMPOUNDS AND PHARMACEUTICAL COMPOSITIONS THEREOF FOR THE TREATMENT OF INFLAMMATORY DISORDERS” (Galapagos NV, priority 2019, published 2022).

Assays:
Human Hepatocyte = test: Metabolic stability in hepatocytes (human); format: in vitro ADME; details: 1 μM test compound, cryopreserved human hepatocytes
Description: 4.6. Metabolic Stability in Hepatocytes
The aim of this assay is to determine the metabolic stability of the compound in hepatocytes (cryopreserved) of different species. Low hepatocyte stability may result in the formation of unwanted metabolites, high clearance, and therefore is not desirable.
The decrease in parent was assessed by measuring the percentage remaining by LC-MS/MS analysis.
A 10 mM stock solution of test compound in DMSO was first diluted in DMSO to 3 mM, and then in modified Krebs-Henseleit buffer (Sigma, K3753) to 5 μM. This compound dilution was added to a suspension of pooled cryopreserved hepatocytes (BioreclamationIVT) at 37° C. under gentle shaking.
Final reaction conditions were: 1 μM of test compound, 0.03% DMSO, 0.5 million viable hepatocytes/mL, and 75 μL incubation volume.
Testosterone (1 μM) and 7-hydroxycoumarin (1 μM) were used, respectively as phase I and phase II metabolic reaction controls.
After 0, 10, 20, 45, 90, 120 and 180 min of incubation, the reaction was terminated with 225 μL of MeCN:MeOH (2:1) containing 100 ng/mL of diclofenac as analytical internal standard. Samples were mixed, centrifuged and the supernatant analyzed by LC-MS/MS.
The instrument responses (ratios of test compound and internal standard peak areas) were referenced to the zero time point samples (considered as 100%) in order to determine the percentage of compound remaining.
Plots of percentage compound remaining were used to determine the intrinsic clearance in the hepatocyte incubations using the following equations:
Scaled Clint [L/h/kg]=Clint[μL/min/10^6 cells]*#(10^6) cells/g liver*60*( 1/10^6) Scaled Clint unbound [L/h/kg]=Clint [L/h/kg]/Fu,inc where: fu,inc equals hepatocyte binding, derived from microsomal binding (fu,mic) by following equation: […]

human IRAK-4 = target: T1, human IRAK-4 (Homo sapiens, UniProt Q9NWZ3); test: Phosphorylation IC50 determination for human IRAK-4 (ADP-Glo kinase assay); format: biochemical; details: RIP140 substrate, Km ATP, read-out: IRAK4 IC50
T1 construct: purchased Carna Biosciences 09 145
T1 sequence (Q9NWZ3 1-460): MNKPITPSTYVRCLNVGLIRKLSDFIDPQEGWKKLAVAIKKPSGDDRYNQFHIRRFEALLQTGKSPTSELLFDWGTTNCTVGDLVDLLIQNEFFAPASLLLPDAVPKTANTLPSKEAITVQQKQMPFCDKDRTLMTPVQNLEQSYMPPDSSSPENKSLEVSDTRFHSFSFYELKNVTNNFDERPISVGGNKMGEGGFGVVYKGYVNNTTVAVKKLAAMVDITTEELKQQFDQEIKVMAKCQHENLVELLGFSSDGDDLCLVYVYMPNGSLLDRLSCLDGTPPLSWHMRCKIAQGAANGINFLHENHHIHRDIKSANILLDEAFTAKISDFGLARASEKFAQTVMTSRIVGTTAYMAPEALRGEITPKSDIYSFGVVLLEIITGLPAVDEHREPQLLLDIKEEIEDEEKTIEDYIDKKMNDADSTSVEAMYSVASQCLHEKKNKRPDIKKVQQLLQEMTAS
Description: 3.1. Phosphorylation IC50 Determination for Human IRAK-4
The phosphorylation of the substrate RIP140 (SEQ IDi1) by IRAK4 at Km ATP was detected with the ADP-Glo Kinase Assay (Promega, Cat #V9103), a luminescent kinase assay which measures the ADP formed from a kinase reaction. (Zegzouti et al., 2009) In a second step the kinase reaction is terminated and all the remaining ATP was depleted. In a final step the ADP was converted into ATP and this newly synthesized ATP was measured by using a luciferase/luciferin reaction with a luminescent reader. The luminescent signal positively correlated with kinase activity, in particular kinase inhibition giving a decrease of the luminescent signal.
For the semi-automated assay, the positive control (100% inhibition) was prepared by diluting 10 mM staurosporine stock mixture (20 μL) in water (3.8 mL) and DMSO (180 μL), thus resulting in a […] staurosporine solution at 1% DMSO (final concentration after further dilution in the kinase reaction).
For the automated assay, no pre-dilution of the 10 mM staurosporine stock was made. 10 mM staurosporine was spotted directly in the assay plate using acoustic dispensing and complemented with DMSO to result in a similar final concentration as mentioned above.
For the semi-automated assay, the negative control (0% inhibition) was prepared by mixing water (3.8 mL) and DMSO (200 μL) resulting in a final concentration of 1% DMSO after further dilution in the kinase reaction. For the automated assay no pre-dilution of DMSO was done. 100% DMSO was spotted directly on the assay plate.
The assay buffer solution was prepared at a concentration corresponding to 5 fold the final (most diluted) assay concentration by mixing a solution of 125 mM TRIS pH 7.5+0.05% Triton X-100+2.5 mM EGTA (5.27 mL) with 1M MgCl2 (72 μL), 1M DTT (57.6 μL), and 200 mM MnCl2 (360 μL).
For example, for the semi-automated method, the enzyme-substrate mixture was prepared by mixing water (3999 μL), assay buffer solution (1380 μL), 1 mM RIP140 (138 μL—SEQ ID1), and 200 ng/mL IRAK 4 (3.45 μL Carna Biosciences, 09 145).
For semi-automated method, the ATP mixture was prepared at a concentration corresponding to 2.5 fold the final (most diluted) assay concentration of the semi-automated method and 1.5 fold the final (most diluted) assay concentration of the automated method. For example, for the semi-automated method, the ATP mixture was prepared by mixing water (4126 μL), assay buffer solution (1380 μL), and 10 mM ATP (13.80 μL).
The assay was performed either in a semi-automated or fully automated manner. The assay volume and the incubation time of the ADP detection were different accordingly the method used.
3.1.3.1. Semi-Automated Assay
The compounds were prepared as a serial dilution of 10 point dose responses with 1/5 dilution steps in 100% DMSO starting from 2 mM highest concentration, diluted 1/20 in water. 1 μL was transferred dry to the assay plates.
On each assay plate 32 wells of each control (positive & negative) were added, followed by 2 μL enzyme-substrate mixture.
The reaction was started by adding 2 μL diluted ATP (final concentration Km ATP) on the assay plates. Plates were centrifuged for a few seconds at 1000 rpm followed by an incubation at r.t. for 120 min.
The reactions were stopped and the unconsumed ATP was depleted by adding 5 μL ADP-glo Reagent (Promega, Cat #V9103) to the reaction. The plates were quickly centrifuged at 1000 rpm and incubated at r.t. for 40 min corresponding to full ATP depletion.
The ADP was converted back to ATP and luciferase and luciferin were introduced to detect ATP by adding 10 μL kinase detection reagent (Promega, Cat #V9103) to the reaction. The plates were centrifuged for a few seconds at 1000 rpm and incubated at r.t. for a further 30 min.
Luminescent read out was performed on an Envision luminescent reader (Perkin Elmer). […]

Row | Human Hepatocyte stability (Perc. remaining at 90 min) (Human Hepatocyte) [Perc.] | IC50 (human IRAK-4) [nM] | Structure (SMILES)
1 | 90.8 | 0.1 to 5 | CCOc1cn2nc(CCC(C)(C)O)cc2cc1NC(=O)c1cccn(C)c1=O [Compound 18, N-[6-ethoxy-2-(3-hydroxy-3-methyl-butyl)pyrazolo[1,5-a]pyridin-5-yl]-1-methyl-2-oxo-pyridine-3-carboxamide]
2 | 92.15 | 0.1 to 5 | COc1cn2nc(CCC(C)(C)O)cc2cc1NC(=O)c1cccn(C2CCC2)c1=O [Compound 21, 1-cyclobutyl-N-[2-(3-hydroxy-3-methyl-butyl)-6-methoxy-pyrazolo[1,5-a]pyridin-5-yl]-2-oxo-pyridine-3-carboxamide]
3 | 107 | 0.1 to 5 | CNC(=O)c1cn2nc(C3CCCS(=O)(=O)C3)cc2cc1NC(=O)c1cccc(C(F)(F)F)n1 (stereo not drawn) [Compound 8, 2-(1,1-dioxothian-3-yl)-N-methyl-5-[[6-(trifluoromethyl)pyridine-2-carbonyl]amino]pyrazolo[1,5-a]pyridine-6-carboxamide]
4 | 97.8 | 10 to 50 | COc1cn2nc(CC(F)C(C)(C)O)cc2cc1NC(=O)c1cccn(C2CC2)c1=O (single isomer, unassigned; enantiomer b) [Compound 26, 1-cyclopropyl-N-[2-(2-fluoro-3-hydroxy-3-methyl-butyl)-6-methoxy-pyrazolo[1,5-a]pyridin-5-yl]-2-oxo-pyridine-3-carboxamide Enantiomer B]
5 | 85.6 | 5 to 10 | CCOc1cn2nc(CCC(C)(C)O)cc2cc1NC(=O)c1cccn(C(F)F)c1=O [Compound 9, 1-(difluoromethyl)-N-[6-ethoxy-2-(3-hydroxy-3-methyl-butyl)pyrazolo[1,5-a]pyridin-5-yl]-2-oxo-pyridine-3-carboxamide]
6 | 96.6 | 0.1 to 5 | COc1cn2nc(CCC(C)(C)O)cc2cc1NC(=O)c1cccn(C2CC2)c1=O [Compound 1, 1-cyclopropyl-N-[2-(3-hydroxy-3-methylbutyl)-6-methoxypyrazolo[1,5-a]pyridin-5-yl]-2-oxopyridine-3-carboxamide]
